Measured values reported in patent US20050245399A1, “Pyrazole derivatives as herbicidal compositions containing them” (ISHIHARA SANGYO KAISHA, LTD., priority 2004, published 2005).

Legend:
Assay type in all cases: in vivo
[1] = tested on: rice (Oryza sativa L.), ORYSA; test: Test Example 2 post-emergence (foliage treatment) herbicidal activity, ORYSA
Summary of the method: (§1)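 Foliar spray of formulated compound (500 L/ha dilution water, 0.1% v/v spreader) onto young potted plants at defined leaf stages. Scored 0-100% by visual inspection 20-23 d post-spray.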

[2] = tested on: japanese ribbon wapato (Sagittaria pygmaea: SA GPY); test: Test Example 3 water application herbicidal activity (paddy), SAGPY; settings: 63 g a.i./ha, water application under submerged condition, tubers planted, visually observed 14th day after application; 0 = untreated control, 100 = complete kill
Summary of the method: (§2)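 Flooded paddy-soil pots in greenhouse; ECHOR and SCPJO sown, SAGPY tubers planted a day later, compound applied into 3–4 cm water at weeds' 0.5-leaf stage. Rice transplanted at 2-leaf stage, treated day 4 after transplanting. Visual growth control 0–100% at 14 days (weeds) and 21 days (rice) after application.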

[3] = tested on: velvetleaf (Abutilon theophrasti): ABUTH; test: Test Example 1 pre-emergence herbicidal activity, ABUTH; settings: visually observed 20th to 23rd day after application
Summary of the method: (§3)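 Visual scoring 20–23 days after treatment gives percent growth control, where 0 equals untreated and 100 means complete kill. Treatment: pre-emergence spray of formulated compound in 500 L/ha water, one day after sowing in upland soil.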

[4] = tested on: green foxtail (Setaria viridis L.), SETVI; test: Test Example 2 post-emergence (foliage treatment) herbicidal activity, SETVI
Summary of the method: as §1

[5] = tested on: redroot pigweed (Amaranthus retroflexus L.): AMARE; test: Test Example 1 pre-emergence herbicidal activity, AMARE; settings: visually observed 20th to 23rd day after application
Summary of the method: as §3

[6] = tested on: crabgrass (Digitaria sanguinalis L.), DIGSA; test: Test Example 2 post-emergence (foliage treatment) herbicidal activity, DIGSA
Summary of the method: as §1

[7] = tested on: corn (Zea mays L.): ZEAMX; test: Test Example 1 pre-emergence herbicidal activity, ZEAMX; settings: visually observed 20th to 23rd day after application
Summary of the method: as §3

[8] = tested on: crabgrass (Digitaria sanguinalis L.): DIGSA; test: Test Example 1 pre-emergence herbicidal activity, DIGSA; settings: visually observed 20th to 23rd day after application
Summary of the method: as §3

[9] = tested on: velvetleaf (Abutilon theophrasti), ABUTH; test: Test Example 2 post-emergence (foliage treatment) herbicidal activity, ABUTH
Summary of the method: as §1

[10] = tested on: rice (Oryza sativa L.): ORYSA; test: Test Example 1 pre-emergence herbicidal activity, ORYSA; settings: visually observed 20th to 23rd day after application
Summary of the method: as §3

[11] = tested on: soybean (Glycine max Merr.): GLXMA; test: Test Example 1 pre-emergence herbicidal activity, GLXMA; settings: visually observed 20th to 23rd day after application
Summary of the method: as §3

[12] = tested on: redroot pigweed (Amaranthus retroflexus L.), AMARE; test: Test Example 2 post-emergence (foliage treatment) herbicidal activity, AMARE
Summary of the method: as §1

[13] = tested on: soybean (Glycine max Merr.), GLXMA; test: Test Example 2 post-emergence (foliage treatment) herbicidal activity, GLXMA
Summary of the method: as §1

[14] = tested on: corn (Zea mays L.), ZEAMX; test: Test Example 2 post-emergence (foliage treatment) herbicidal activity, ZEAMX
Summary of the method: as §1

[15] = tested on: wheat (Triticum aestivum L.), TRZAX; test: Test Example 2 post-emergence (foliage treatment) herbicidal activity, TRZAX
Summary of the method: as §1

[16] = tested on: wheat (Triticum aestivum L.): TRZAX; test: Test Example 1 pre-emergence herbicidal activity, TRZAX; settings: visually observed 20th to 23rd day after application
Summary of the method: as §3

[17] = tested on: green foxtail (Setaria viridis L.): SETVI; test: Test Example 1 pre-emergence herbicidal activity, SETVI; settings: visually observed 20th to 23rd day after application
Summary of the method: as §3

[18] = tested on: rice (Oryza sativa L.: ORYSA); test: Test Example 3 water application herbicidal activity (paddy), transplanted rice ORYSA; settings: 63 g a.i./ha, water application 4th day after transplantation of 2 leaf stage rice, visually observed 21st day after application; 0 = untreated control, 100 = complete kill
Summary of the method: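 Rice at 2-leaf stage is transplanted into flooded puddled soil and treated by water application 4 days later, at a predetermined active-ingredient dose. Crop injury is rated visually as growth control (0–100%) 21 days after treatment.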

[19] = tested on: barnyardgrass (Echinochloa crus-galli L.), ECHCG; test: Test Example 2 post-emergence (foliage treatment) herbicidal activity, ECHCG
Summary of the method: as §1

[20] = tested on: barnyardgrass (Echinochloa crus-galli L.): ECHCG; test: Test Example 1 pre-emergence herbicidal activity, ECHCG; settings: visually observed 20th to 23rd day after application
Summary of the method: as §3

[21] = tested on: japanese bulrush (Scirpus juncoides: SCPJO); test: Test Example 3 water application herbicidal activity (paddy), SCPJO; settings: 63 g a.i./ha, water application under submerged condition at 0.5 leaf stage, visually observed 14th day after application; 0 = untreated control, 100 = complete kill
Summary of the method: as §2

[22] = tested on: barnyardgrass (Echinochiloa oryzicola: ECHOR); test: Test Example 3 water application herbicidal activity (paddy), ECHOR; settings: 63 g a.i./ha, water application under submerged condition at 0.5 leaf stage, visually observed 14th day after application; 0 = untreated control, 100 = complete kill
Summary of the method: as §2

[23] = tested on: prickly sida (Sida spinosa L.): SEDSP; test: Test Example 1 pre-emergence herbicidal activity, SIDSP; settings: visually observed 20th to 23rd day after application
Summary of the method: as §3

[24] = tested on: prickly sida (Sida spinosa L.), SIDSP; test: Test Example 2 post-emergence (foliage treatment) herbicidal activity, SIDSP
Summary of the method: as §1

SMILES	growth controlling degrees (%) SAGPY [2]	Pre-emergence Herbicidal Activity ABUTH (growth controlling degree) ([3]; Rate 63 g a.i./ha)	Pre-emergence Herbicidal Activity AMARE (growth controlling degree) ([5]; Rate 63 g a.i./ha)	Pre-emergence Herbicidal Activity ZEAMX (growth controlling degree) ([7]; Rate 63 g a.i./ha)	Pre-emergence Herbicidal Activity DIGSP (growth controlling degree) ([8]; Rate 63 g a.i./ha)	Pre-emergence Herbicidal Activity ORYSA (growth controlling degree) ([10]; Rate 63 g a.i./ha)	Pre-emergence Herbicidal Activity GLXMA (growth controlling degree) ([11]; Rate 63 g a.i./ha)	Pre-emergence Herbicidal Activity TRZAX (growth controlling degree) ([16]; Rate 63 g a.i./ha)	Pre-emergence Herbicidal Activity SETVI (growth controlling degree) ([17]; Rate 63 g a.i./ha)	growth controlling degrees (%) ORYSA [18]	Pre-emergence Herbicidal Activity ECHCG (growth controlling degree) ([20]; Rate 63 g a.i./ha)	growth controlling degrees (%) SCPJO [21]	growth controlling degrees (%) ECHOR [22]	Pre-emergence Herbicidal Activity SIDSP (growth controlling degree) ([23]; Rate 63 g a.i./ha)	growth controlling degree, ORYSA ([1]; 63 g a.i./ha)	growth controlling degree, SETVI ([4]; 63 g a.i./ha)	growth controlling degree, DIGSP ([6]; 63 g a.i./ha)	growth controlling degree, ABUTH ([9]; 63 g a.i./ha)	growth controlling degree, AMARE ([12]; 63 g a.i./ha)	growth controlling degree, GLXMA ([13]; 63 g a.i./ha)	further results
COc1c(Cl)cc(F)c(-c2nn(C)c(OC(F)F)c2Cl)c1N [Compound 1-90, 3-chloro-6-[4-chloro-5-(difluoromethoxy)-1-methyl-1H-pyrazol-3-yl]-5-fluoro-2-methoxybenzenamine]	98%	100%	100%	30%	100%	60%	40%	50%	100%	50%	98%	98%	100%	98%	–	–	–	–	–	–	growth controlling degree, ORYSA ([1]; 31 g a.i./ha): 98%; growth controlling degree, SETVI ([4]; 31 g a.i./ha): 100%; growth controlling degree, DIGSP ([6]; 31 g a.i./ha): 100%; growth controlling degree, ABUTH ([9]; 31 g a.i./ha): 100%; growth controlling degree, AMARE ([12]; 31 g a.i./ha): 100%; growth controlling degree, GLXMA ([13]; 31 g a.i./ha): 98%; growth controlling degree, ZEAMX ([14]; 31 g a.i./ha): 98%; growth controlling degree, TRZAX ([15]; 31 g a.i./ha): 95%; growth controlling degree, ECHCO ([19]; 31 g a.i./ha): 100%; growth controlling degree, SIDSP ([24]; 31 g a.i./ha): 100%
COc1c(Cl)cc(F)c(-c2nn(C)c(OC(F)F)c2Cl)c1NC(=O)OCc1ccccc1Cl [Compound 1-63]	70%	30%	100%	0%	40%	0%	0%	10%	30%	40%	30%	70%	100%	20%	60%	100%	90%	100%	100%	60%	growth controlling degree, ZEAMX ([14]; 63 g a.i./ha): 70%; growth controlling degree, TRZAX ([15]; 63 g a.i./ha): 40%; growth controlling degree, ECHCO ([19]; 63 g a.i./ha): 100%; growth controlling degree, SIDSP ([24]; 63 g a.i./ha): 100%
Cn1nc(-c2c(F)cc(Cl)c(OC(F)F)c2NCc2ccccc2)c(Cl)c1OC(F)F [Compound 1-88]	60%	70%	100%	0%	98%	10%	40%	0%	70%	20%	50%	80%	100%	80%	30%	100%	98%	100%	100%	60%	growth controlling degree, ZEAMX ([14]; 63 g a.i./ha): 60%; growth controlling degree, TRZAX ([15]; 63 g a.i./ha): 30%; growth controlling degree, ECHCO ([19]; 63 g a.i./ha): 100%; growth controlling degree, SIDSP ([24]; 63 g a.i./ha): 100%
C#CCNc1c(OC)c(Cl)cc(F)c1-c1nn(C)c(OC(F)F)c1Cl [Compound 1-53]	100%	100%	100%	20%	100%	50%	30%	20%	100%	70%	100%	100%	100%	100%	95%	100%	100%	100%	100%	95%	growth controlling degree, ZEAMX ([14]; 63 g a.i./ha): 100%; growth controlling degree, TRZAX ([15]; 63 g a.i./ha): 40%; growth controlling degree, ECHCO ([19]; 63 g a.i./ha): 100%; growth controlling degree, SIDSP ([24]; 63 g a.i./ha): 100%
COCCOC(=O)N(C(=O)OCCOC)c1c(OC)c(Cl)cc(F)c1-c1nn(C)c(OC(F)F)c1Cl [Compound 1-54]	30%	–	–	–	–	–	–	–	–	40%	–	30%	98%	–	98%	80%	70%	100%	100%	60%	Pre-emergence Herbicidal Activity ABUTH (growth controlling degree) ([3]; Rate 125 g a.i./ha): 80%; Pre-emergence Herbicidal Activity AMARE (growth controlling degree) ([5]; Rate 125 g a.i./ha): 100%; Pre-emergence Herbicidal Activity ZEAMX (growth controlling degree) ([7]; Rate 125 g a.i./ha): 0%; Pre-emergence Herbicidal Activity DIGSP (growth controlling degree) ([8]; Rate 125 g a.i./ha): 100%; Pre-emergence Herbicidal Activity ORYSA (growth controlling degree) ([10]; Rate 125 g a.i./ha): 30%; Pre-emergence Herbicidal Activity GLXMA (growth controlling degree) ([11]; Rate 125 g a.i./ha): 10%; growth controlling degree, ZEAMX ([14]; 63 g a.i./ha): 50%; growth controlling degree, TRZAX ([15]; 63 g a.i./ha): 30%; Pre-emergence Herbicidal Activity TRZAX (growth controlling degree) ([16]; Rate 125 g a.i./ha): 20%; Pre-emergence Herbicidal Activity SETVI (growth controlling degree) ([17]; Rate 125 g a.i./ha): 100%; growth controlling degree, ECHCO ([19]; 63 g a.i./ha): 90%; Pre-emergence Herbicidal Activity ECHCG (growth controlling degree) ([20]; Rate 125 g a.i./ha): 20%; Pre-emergence Herbicidal Activity SIDSP (growth controlling degree) ([23]; Rate 125 g a.i./ha): 95%; growth controlling degree, SIDSP ([24]; 63 g a.i./ha): 100%
